Data reported in patent US8258141B2, “Organic compounds” (Novartis AG, priority 2006, dated 2012).
Structures can show the parent of a compound that is named as a salt.

Target: adenosine A2A receptor (Homo sapiens, UniProt P29274)
Test: Adenosine A2A receptor agonist assay, method of L. J. Murphree et al, Molecular Pharmacology 61, 455-462 (2002)
Format: binding
Source text: Compounds of formula (I) and formula (II) and their pharmaceutically acceptable salts are useful as pharmaceuticals. In particular, they activate the adenosine A2A receptor, i.e. they act as A2A receptor agonists.

adenosine A2A receptor, sequence (P29274 whole entry): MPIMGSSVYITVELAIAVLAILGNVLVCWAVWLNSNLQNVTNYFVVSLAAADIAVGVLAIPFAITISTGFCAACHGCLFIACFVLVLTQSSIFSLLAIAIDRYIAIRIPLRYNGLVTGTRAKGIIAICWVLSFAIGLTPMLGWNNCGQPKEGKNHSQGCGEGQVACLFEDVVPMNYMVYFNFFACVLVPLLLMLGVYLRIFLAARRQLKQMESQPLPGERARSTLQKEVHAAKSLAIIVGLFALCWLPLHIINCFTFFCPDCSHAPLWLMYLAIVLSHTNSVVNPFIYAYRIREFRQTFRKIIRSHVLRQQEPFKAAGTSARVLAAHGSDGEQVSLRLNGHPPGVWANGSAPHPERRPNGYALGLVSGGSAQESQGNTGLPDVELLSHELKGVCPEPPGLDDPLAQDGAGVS

Row | Ki [nM] | SMILES
1 | 8.3 | N[C@@H]1CCN(c2nc(NCC(c3ccccc3)c3ccccc3)c3ncn([C@@H]4C[C@H](NC(=O)CO)[C@@H](O)[C@H]4O)c3n2)C1 [Example 1, N-{(1S,2R,3S,4R)-4-[2-((R)-3-Amino-pyrrolidin-1-yl)-6-(2,2-diphenyl-ethylamino)-purin-9-yl]-2,3-dihydroxy-cyclopentyl}-2-hydroxy-acetamide trifluoroacetate]
2 | 2.5 | O=C(CO)N[C@H]1C[C@@H](n2cnc3c(NCC(c4ccccc4)c4ccccc4)nc(C(=O)NCCNC(=O)NC4CCN(c5ccccn5)CC4)nc32)[C@H](O)[C@@H]1O [Example 14, 9-[(1R,2S,3R,4S)-2,3-Dihydroxy-4-(2-hydroxy-acetylamino)-cyclopentyl]-6-(2,2-diphenyl-ethylamino)-9H-purine-2-carboxylic acid {2-[3-(3,4,5,6-tetrahydro-2H-[1,2′]bipyridinyl-4-yl)-ureido]-ethyl}-amide trifluoroacetate]
3 | 1.6 | CCC(=O)N[C@H]1C[C@@H](n2cnc3c(NCC(c4ccccc4)c4ccccc4)nc(N4CC[C@@H](NC(=O)NCc5ccncc5)C4)nc32)[C@H](O)[C@@H]1O [Example 20, N-((1S,2R,3S,4R)-4-{6-(2,2-diphenyl-ethylamino)-2-[(R)-3-(3-pyridin-4-ylmethyl-ureido)-pyrrolidin-1-yl]-purin-9-yl}-2,3-dihydroxy-cyclopentyl)-propionamide trifluoroacetate]
4 | 3 | CCC(=O)N[C@H]1C[C@@H](n2cnc3c(NCC(c4ccccc4)c4ccccc4)nc(N4CC[C@@H](NC(=O)N[C@@H]5CCN(C(=O)c6ccc(C(=O)OC)cc6)C5)C4)nc32)[C@H](O)[C@@H]1O [Example 36, 4-[(R)-3-(3-{(R)-1-[9-((1R,2S,3R,4S)-2,3-Dihydroxy-4-propionylamino-cyclopentyl)-6-(2,2-diphenyl-ethylamino)-9H-purin-2-yl]-pyrrolidin-3-yl}-ureido)-pyrrolidine-1-carbonyl]-benzoic acid methyl ester]
5 | 8 | CCC(=O)N[C@H]1C[C@@H](n2cnc3c(NCC(c4ccccc4)c4ccccc4)nc(N4CC[C@@H](NC(=O)Nc5ccc(OCc6ccccc6)cc5)C4)nc32)[C@H](O)[C@@H]1O [Example 178, N-{(1S,2R,3S,4R)-4-[2-{(R)-3-[3-(4-Benzyloxy-phenyl)-ureido]-pyrrolidin-1-yl}-6-(2,2-diphenyl-ethylamino)-purin-9-yl]-2,3-dihydroxy-cyclopentyl}-propionamide trifluoroacetate]
